Laboratory results taken from patent US10940155B2, “Oral quetiapine suspension formulations with extended shelf life and enhanced bioavailability” (TLC THERAPEUTICS, LLC, priority 2017, dated 2021).
Structures can show the parent of a compound that is named as a salt. Where two headings read alike, the source gives them in different places.

Experiments:
[1] = due to extensive first-pass metabolism; cited from earlier work

solubility (pH 2): 1.499 g/5 ml | solubility (pH 3): 952.1 mg/5 ml
Structure (SMILES): OCCOCCN1CCN(C2=Nc3ccccc3Sc3ccccc32)CC1 [quetiapine fumarate, 2-[2-(4-dibenzo [b,f][1,4]thiazepin-11-yl-1-piperazinyl)ethoxy]-ethanol fumarate (2:1)]
oral bioavailability [1]: poor
